# Laboratory results reported in article PMC9250534, “Synthesis and direct assay of large macrocycle diversities by combinatorial late-stage modification at picomole scale” (Nature Communications, 2022).
# Numbered stars: 1 amine (or outer) side, 2 acyl side, 3 side chain; on linkers, the order of the positions; unused ones are H or OH. Bridge positions count the residues as written; N and C are the ends. Square brackets hold non-standard residues; d marks the D form. Peptide text beside a SMILES is read from it. * marks the point of attachment. Pyrazinoyl(5-oxo-4H) = O=C(c1c[nH]c(=O)cn1)*; 1,2,3Thiadiazole5CO(4-Me) = Cc1nnsc1C(=O)*; Isoorotoyl = O=C(c1c[nH]c(=O)[nH]c1=O)*; Nicotinoyl(6-OMe) = COc1ccc(C(=O)*)cn1; 2Thenoyl(5-Cl) = O=C(c1ccc(Cl)s1)*; Phenoxyacetyl = O=C(COc1ccccc1)*; Cysteamide = C(CS[*:3])N[*:1]; X3 = O=C(Cc1c[nH]c2ccccc12)*; Isovaleryl = CC(C)CC(=O)*; 2Furoyl = O=C(c1ccco1)*; Bz = O=C(c1ccccc1)*; Mpa = O=C(O)CCS
# Target: T1, thrombin (Homo sapiens, UniProt P00734)
# T1 construct: consists of two polypeptide chains of 36 (light chain) and 259 amino acid
# Assay: Thrombin inhibition screen of crude macrocycle reactions (residual thrombin activity, fluorogenic substrate Z-Gly-Gly-Arg-AMC)
# Assay type: biochemical
# Details: 10 µM macrocycle concentration; crude reactions, Library 1a-l; scaffold AA1-AA2-AA3 combined with 1-16 or '-'
# Method in brief: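 Residual activity was measured as the AMC release rate after adding 50 μM Z-Gly-Gly-Arg-AMC. This followed a 10-min room-temperature preincubation of 2 nM thrombin with 10 μM single macrocycles in pH 7.4 Tris buffer (0.6% DMSO). Percent inhibition was taken against the mean slope of DMSO controls.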
row,Compound,percent residual thrombin activity [%]
1,CC(C)CC(=O)NCCC[C@@H]1NC(=O)[C@H]2CCCN(C2)C(=O)[C@H](CC(C)C)NC(=O)CCSSCCNC1=O [L-B4-D2/8],106.945
2,COc1ccc(C(=O)NCCC[C@@H]2NC(=O)[C@H]3CCCN(C3)C(=O)[C@H](CC(C)C)NC(=O)CCSSCCNC2=O)cn1 [L-B4-D2/10],107.664
3,CC(C)C[C@@H]1NC(=O)CCSSCCNC(=O)[C@H](CCCNC(=O)Cc2c[nH]c3ccccc23)NC(=O)[C@H]2CCCN(C2)C1=O [L-B4-D2/12],105.489
4,CC(C)C[C@@H]1NC(=O)CCSSCCNC(=O)[C@H](CCCNC(=O)COc2ccccc2)NC(=O)[C@H]2CCCN(C2)C1=O [L-B4-D2/13],110.982
5,CC(C)C[C@@H]1NC(=O)CCSSCCNC(=O)[C@H](CCCNC(=O)c2ccc(Cl)s2)NC(=O)[C@H]2CCCN(C2)C1=O [L-B4-D2/14],97.6394
6,CC(C)C[C@@H]1NC(=O)CCSSCCNC(=O)[C@H](CCCN)NC(=O)[C@H]2CCCN(C2)C1=O [L-B4-D2/-],109.552
7,CC(C)C[C@@H]1NC(=O)CCSSCCNC(=O)[C@H](CCCCNC(=O)c2cnccn2)NC(=O)C2(CC2)CNC1=O [L-B6-D1/2],107.636
8,CC(C)C[C@@H]1NC(=O)CCSSCCNC(=O)[C@H](CCCCNC(=O)c2c[nH]c(=O)cn2)NC(=O)C2(CC2)CNC1=O [L-B6-D1/9],98.21
9,CC(C)C[C@@H]1NC(=O)CCSSCCNC(=O)[C@H](CCCCNC(=O)c2ccc(Cl)s2)NC(=O)C2(CC2)CNC1=O [L-B6-D1/14],94.7651
10,CC(C)C[C@@H]1NC(=O)CCSSCCNC(=O)[C@H](CCCCN)NC(=O)C2(CC2)CNC1=O [L-B6-D1/-],103.319
11,CC(C)CC(=O)NCCCC[C@@H]1NC(=O)[C@H](CC(C)C)NC(=O)CCSSCCNC(=O)[C@@H]2CCCN2C1=O [L-D1-B1/8] ([Mpa]LK(Isovaleryl)P-Cysteamide; disulfide 1-C),109.409
12,CC(C)C[C@@H]1NC(=O)CCSSCCNC(=O)[C@@H]2CCCN2C(=O)[C@H](CCCCNC(=O)COc2ccccc2)NC1=O [L-D1-B1/13] ([Mpa]LK(Phenoxyacetyl)P-Cysteamide; disulfide 1-C),112.403
13,"Cc1nnsc1C(=O)NCCCC[C@@H]1NC(=O)[C@H](CC(C)C)NC(=O)CCSSCCNC(=O)[C@@H]2CCCN2C1=O [L-D1-B1/15] ([Mpa]LK(1,2,3Thiadiazole5CO(4-Me))P-Cysteamide; disulfide 1-C)",110.815
14,NC(=O)CC[C@@H]1NC(=O)CCSSCCNC(=O)[C@H](CCCCNC(=O)c2cnccn2)NC(=O)C2(CC2)CNC1=O [Q-B6-D1/2],107.685
15,NC(=O)CC[C@@H]1NC(=O)CCSSCCNC(=O)[C@H](CCCCNC(=O)c2c[nH]c(=O)[nH]c2=O)NC(=O)C2(CC2)CNC1=O [Q-B6-D1/11],108.88
16,NC(=O)CC[C@@H]1NC(=O)CCSSCCNC(=O)[C@H](CCCCNC(=O)Cc2c[nH]c3ccccc23)NC(=O)C2(CC2)CNC1=O [Q-B6-D1/12],103.639
17,NC(=O)CC[C@@H]1NC(=O)CCSSCCNC(=O)[C@H](CCCCNC(=O)c2ccc(Cl)s2)NC(=O)C2(CC2)CNC1=O [Q-B6-D1/14],99.4946
18,NC(=O)CC[C@@H]1NC(=O)CCSSCCNC(=O)[C@H]2CCCN(C2)C(=O)[C@H](CCCCNC(=O)c2c[nH]c(=O)[nH]c2=O)NC1=O [Q-D1-B4/11],113.771
19,NC(=O)CC[C@@H]1NC(=O)CCSSCCNC(=O)[C@H]2CCCN(C2)C(=O)[C@H](CCCCNC(=O)COc2ccccc2)NC1=O [Q-D1-B4/13],120.491
20,NC(=O)CC[C@@H]1NC(=O)CCSSCCNC(=O)[C@H]2CCCN(C2)C(=O)[C@H](CCCCNC(=O)c2ccc(Cl)s2)NC1=O [Q-D1-B4/14],109.426
21,O=C1CCSSCCNC(=O)[C@H](CCCNC(=O)c2ccccc2)NC(=O)c2ccc(cc2)CNC(=O)[C@H](CO)N1 [S-B3-D2/1],105.629
22,CC(C)CC(=O)NCCC[C@@H]1NC(=O)c2ccc(cc2)CNC(=O)[C@H](CO)NC(=O)CCSSCCNC1=O [S-B3-D2/8],113.923

row,Compound,percent residual thrombin activity [%]
1,O=C(Cc1c[nH]c2ccccc12)NCCC[C@@H]1NC(=O)c2ccc(cc2)CNC(=O)[C@H](CO)NC(=O)CCSSCCNC1=O [S-B3-D2/12],111.94
2,O=C(COc1ccccc1)NCCC[C@@H]1NC(=O)c2ccc(cc2)CNC(=O)[C@H](CO)NC(=O)CCSSCCNC1=O [S-B3-D2/13],119.049
3,Cc1nnsc1C(=O)NCCC[C@@H]1NC(=O)c2ccc(cc2)CNC(=O)[C@H](CO)NC(=O)CCSSCCNC1=O [S-B3-D2/15],116.562
4,O=C1CCSSCCNC(=O)[C@H](CCCNC(=O)c2ccco2)NC(=O)c2ccc(cc2)CNC(=O)[C@H](CO)N1 [S-B3-D2/16],114.086
5,NCCC[C@@H]1NC(=O)c2ccc(cc2)CNC(=O)[C@H](CO)NC(=O)CCSSCCNC1=O [S-B3-D2/-],119.352
6,O=C1CCSSCCNC(=O)[C@H](CCCCNC(=O)c2c[nH]c(=O)[nH]c2=O)NC(=O)c2cccc(c2)CNC(=O)[C@H](CO)N1 [S-B5-D1/11],117.639
7,O=C1CCSSCCNC(=O)[C@H](CCCCNC(=O)c2ccco2)NC(=O)c2cccc(c2)CNC(=O)[C@H](CO)N1 [S-B5-D1/16],112.778
8,CC(C)[C@@H]1NC(=O)CCSSCCNC(=O)[C@@H]2CCCN2C(=O)[C@H](CCCCNC(=O)c2c[nH]c(=O)cn2)NC1=O [V-D1-B1/9] ([Mpa]VK(Pyrazinoyl(5-oxo-4H))P-Cysteamide; disulfide 1-C),107.119
9,COc1ccc(C(=O)NCCCC[C@@H]2NC(=O)[C@H](C(C)C)NC(=O)CCSSCCNC(=O)[C@@H]3CCCN3C2=O)cn1 [V-D1-B1/10] ([Mpa]VK(Nicotinoyl(6-OMe))P-Cysteamide; disulfide 1-C),107.385
10,CC(C)[C@@H]1NC(=O)CCSSCCNC(=O)[C@@H]2CCCN2C(=O)[C@H](CCCCNC(=O)Cc2c[nH]c3ccccc23)NC1=O [V-D1-B1/12] ([Mpa]VK(X3)P-Cysteamide; disulfide 1-C),105.267
11,CC(C)[C@@H]1NC(=O)CCSSCCNC(=O)[C@@H]2CCCN2C(=O)[C@H](CCCCNC(=O)COc2ccccc2)NC1=O [V-D1-B1/13] ([Mpa]VK(Phenoxyacetyl)P-Cysteamide; disulfide 1-C),111.167
12,CC(C)[C@@H]1NC(=O)CCSSCCNC(=O)[C@@H]2CCCN2C(=O)[C@H](CCCCNC(=O)c2ccc(Cl)s2)NC1=O [V-D1-B1/14] ([Mpa]VK(2Thenoyl(5-Cl))P-Cysteamide; disulfide 1-C),105.594
13,"Cc1nnsc1C(=O)NCCCC[C@@H]1NC(=O)[C@H](C(C)C)NC(=O)CCSSCCNC(=O)[C@@H]2CCCN2C1=O [V-D1-B1/15] ([Mpa]VK(1,2,3Thiadiazole5CO(4-Me))P-Cysteamide; disulfide 1-C)",114.617
14,CC(C)[C@@H]1NC(=O)CCSSCCNC(=O)[C@@H]2CCCN2C(=O)[C@H](CCCCNC(=O)c2ccco2)NC1=O [V-D1-B1/16] ([Mpa]VK(2Furoyl)P-Cysteamide; disulfide 1-C),110.34
15,O=C1CCSSCCNC(=O)[C@H](CCCCNC(=O)c2ccccc2)NC(=O)C2(CC2)CNC(=O)[C@H](Cc2c[nH]c3ccccc23)N1 [W-B6-D1/1],92.2757
16,O=C(COc1ccccc1)NCCCC[C@@H]1NC(=O)C2(CC2)CNC(=O)[C@H](Cc2c[nH]c3ccccc23)NC(=O)CCSSCCNC1=O [W-B6-D1/13],88.7647
17,O=C1CCSSCCNC(=O)[C@H](CCCCNC(=O)c2ccc(Cl)s2)NC(=O)C2(CC2)CNC(=O)[C@H](Cc2c[nH]c3ccccc23)N1 [W-B6-D1/14],81.7178
18,NCCCC[C@@H]1NC(=O)C2(CC2)CNC(=O)[C@H](Cc2c[nH]c3ccccc23)NC(=O)CCSSCCNC1=O [W-B6-D1/-],87.3276
19,O=C1CCSSCCNC(=O)[C@@H]2CCCN2C(=O)[C@H](CCCCNC(=O)c2ccccc2)NC(=O)[C@H](Cc2c[nH]c3ccccc23)N1 [W-D1-B1/1] ([Mpa]WK(Bz)P-Cysteamide; disulfide 1-C),101.199
20,O=C1CCSSCCNC(=O)[C@@H]2CCCN2C(=O)[C@H](CCCCNC(=O)c2c[nH]c(=O)[nH]c2=O)NC(=O)[C@H](Cc2c[nH]c3ccccc23)N1 [W-D1-B1/11] ([Mpa]WK(Isoorotoyl)P-Cysteamide; disulfide 1-C),99.1805
21,O=C(COc1ccccc1)NCCCC[C@@H]1NC(=O)[C@H](Cc2c[nH]c3ccccc23)NC(=O)CCSSCCNC(=O)[C@@H]2CCCN2C1=O [W-D1-B1/13] ([Mpa]WK(Phenoxyacetyl)P-Cysteamide; disulfide 1-C),96.359

# Same assay, conditions: 10 µM macrocycle concentration; macrocycles containing acid 14; crude reaction; original screen
row,Compound,"% thrombin activity, Original screen [%]"
1,CC(C)[C@H]1NC(=O)[C@H](CCCCNC(=O)c2ccc(Cl)s2)NC(=O)[C@@H]2CCCN2C(=O)CCSSCCNC1=O [X B1 D1 v] ([Mpa]PK(2Thenoyl(5-Cl))[dV]-Cysteamide; disulfide 1-C),108.1

# Same assay, conditions: 10 µM macrocycle concentration; macrocycles containing acid 14; crude reaction; replicate reaction and screen
row,Compound,"% thrombin activity, Repeat screen [%]"
1,CC(C)[C@H]1NC(=O)[C@H](CCCCNC(=O)c2ccc(Cl)s2)NC(=O)[C@@H]2CCCN2C(=O)CCSSCCNC1=O [X B1 D1 v] ([Mpa]PK(2Thenoyl(5-Cl))[dV]-Cysteamide; disulfide 1-C),109.9
